Here are results for 23 compounds from patent publication US8466164B2.

One data set deals with SaOS-2 cells. Briefly: MTT cell viability assay on SaOS-2. The settings on record: SaOS-2, MTT, control = 100%, mean ± SD; for CV (%) after 24 h (cellular viability with respect to control): 24 h treatment; for CV (%) after 48 h (cellular viability with respect to control): 48 h treatment, 25 μM.
In the next data set the target is recombinant human Src (Homo sapiens, UniProt P12931). Nature of the data set: cell-free Src enzymatic assay. It counts as biochemical. The note with it: calculated from ID50; triplicate, mean values; read-out: Ki toward recombinant human Src.
recombinant human Src, sequence (P12931 whole entry): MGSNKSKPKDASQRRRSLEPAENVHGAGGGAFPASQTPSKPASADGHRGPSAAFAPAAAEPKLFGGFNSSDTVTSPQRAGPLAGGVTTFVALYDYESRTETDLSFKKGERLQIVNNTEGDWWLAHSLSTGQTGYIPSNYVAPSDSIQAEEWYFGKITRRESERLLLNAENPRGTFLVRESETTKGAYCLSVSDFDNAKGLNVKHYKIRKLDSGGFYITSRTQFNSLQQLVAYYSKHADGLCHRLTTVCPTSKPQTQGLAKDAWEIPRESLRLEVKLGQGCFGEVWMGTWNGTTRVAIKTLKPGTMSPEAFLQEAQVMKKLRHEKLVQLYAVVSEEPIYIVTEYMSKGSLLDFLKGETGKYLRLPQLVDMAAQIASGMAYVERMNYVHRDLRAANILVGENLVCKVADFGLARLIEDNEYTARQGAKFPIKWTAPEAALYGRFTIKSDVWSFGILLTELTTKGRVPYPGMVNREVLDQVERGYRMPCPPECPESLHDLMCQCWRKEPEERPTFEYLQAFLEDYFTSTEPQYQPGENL

The compound `CSc1nc(NCc2ccccc2)c2cnn(CC(Cl)c3ccc(Cl)cc3)c2n1` (centres unmarked) [SI-70] yielded a melting point of 130 to 131 °C. For the same compound, in the data set on SaOS-2 cells, the “CV (%) after 24 h (cellular viability with respect to control)” value (“CV (%) after 24 h” for short) is on record as 52.2 ± 2.4% and the “CV (%) after 48 h (cellular viability with respect to control)” value (from here on “CV (%) after 48 h”) is recorded as 24.4 ± 2.5%.
As for `CSc1nc(NCCc2cccc(F)c2)c2cnn(CC(Cl)c3ccccc3)c2n1` (centres unmarked) [SI-56], in the data set with SaOS-2 cells, the “CV (%) after 24 h” value is reported as 101.1 ± 1.1% and the “CV (%) after 48 h” value worked out at 100.8 ± 2.1%.
Compound `CSc1nc(NCc2ccccc2Cl)c2cnn(CC(Cl)c3ccccc3)c2n1` (centres unmarked) [SI-88] had a melting point of 158 to 159 °C. For the same compound, in the data set with SaOS-2 cells, the “CV (%) after 24 h” value came to 101.7 ± 0.9% and the “CV (%) after 48 h” value turned out to be 102.1 ± 1.2%.
The corresponding values for `CSc1nc(NCc2ccc(F)cc2)c2cnn(CC(Cl)c3ccccc3)c2n1` (centres unmarked) [SI-84] are 136 to 137 °C, 102.1 ± 1.4% and 99.2 ± 1.0%.
The corresponding values for `CSc1nc(NCCc2ccccc2)c2cnn(CC(Cl)c3ccc(Cl)cc3)c2n1` (centres unmarked) [SI-71] are 127 to 129 °C, 99.9 ± 0.9% and 89.4 ± 2.3%.
On to `CCSc1nc(Nc2cccc(Cl)c2)c2cnn(CC(Cl)c3ccccc3)c2n1` (centres unmarked) [SI-96], for which, on recombinant human Src, the Ki is 500 nM. Moreover, in the data set on SaOS-2 cells, the “CV (%) after 24 h” value was 76.5 ± 1.9% and the “CV (%) after 48 h” value amounted to 44.3 ± 1.8%.
Turning to `CSc1nc(NCCc2cccc(Cl)c2)c2cnn(CC(Cl)c3ccccc3)c2n1` (centres unmarked) [SI-58], the melting point lay in the range of 122 to 123 °C. Further, in the data set with SaOS-2 cells, the “CV (%) after 24 h” value worked out at 80.6 ± 0.7% and the “CV (%) after 48 h” value is 39.3 ± 2.0%.
In the case of `CSc1nc(NCc2ccccc2F)c2cnn(CC(Cl)c3ccccc3)c2n1` (centres unmarked) [SI-86], in the data set on SaOS-2 cells, the “CV (%) after 24 h” value amounted to 104.1 ± 1.3% and the “CV (%) after 48 h” value stood at 99.7 ± 0.4%.
For the compound `CSc1nc(NCc2cccc(F)c2)c2cnn(CC(Cl)c3ccccc3)c2n1` (centres unmarked) [SI-85], the melting point lay in the range of 113 to 114 °C. Further, in the data set with SaOS-2 cells, the “CV (%) after 24 h” value was found to be 106.2 ± 3.0% and the “CV (%) after 48 h” value turned out to be 71.3 ± 2.1%.
For `CSc1nc(NCc2ccccc2)c2cnn(CC(Cl)c3ccc(F)cc3)c2n1` (centres unmarked) [SI-65], the melting point was in the range of 152 to 153 °C. In addition, in the data set on SaOS-2 cells, the “CV (%) after 24 h” value is 62.7 ± 0.7% and the “CV (%) after 48 h” value was 44.4 ± 2.5%.
Take `CSc1nc(NCCc2ccc(Cl)cc2)c2cnn(CC(Cl)c3ccccc3)c2n1` (centres unmarked) [SI-57]: in the data set on SaOS-2 cells, the “CV (%) after 24 h” value came out at 85.2 ± 0.7% and the “CV (%) after 48 h” value was determined as 75.4 ± 1.3%.
`CSc1nc(NCCc2ccccc2Cl)c2cnn(CC(Cl)c3ccccc3)c2n1` (centres unmarked) [SI-59]: the melting point lay in the range of 99 to 100 °C. Moreover, in the data set with SaOS-2 cells, the “CV (%) after 24 h” value is 102.9 ± 1.3% and the “CV (%) after 48 h” value is on record as 100.5 ± 0.5%.
With `CSc1nc(Nc2ccccc2)c2cnn(CC(Cl)c3ccccc3)c2n1` (centres unmarked) [SI-118], in the data set with SaOS-2 cells, the “CV (%) after 24 h” value was found to be 100.1 ± 1.2% and the “CV (%) after 48 h” value was found to be 94.4 ± 0.7%.
The corresponding values for `CCCSc1nc(Nc2cccc(Cl)c2)c2cnn(CC(Cl)c3ccccc3)c2n1` (centres unmarked) [SI-101] are 77.8 ± 3.0% and 6.4 ± 1.9%.
On to `COc1ccc(CCNc2nc(SC)nc3c2cnn3CC(Cl)c2ccccc2)cc1` (centres unmarked) [SI-61], for which the melting point is 60 to 61 °C. For the same compound, in the data set on SaOS-2 cells, the “CV (%) after 24 h” value worked out at 101.0 ± 3.0% and the “CV (%) after 48 h” value is listed as 49.8 ± 2.1%.
The corresponding values for `CCSc1nc(NCCc2ccccc2)c2cnn(CC(Cl)c3ccccc3)c2n1` (centres unmarked) [S1-72] are 99 to 100 °C, 107.3 ± 3.5% and 22.2 ± 1.3%.
As to `CSc1nc(Nc2cccc(Br)c2)c2cnn(CC(Cl)c3ccc(F)cc3)c2n1` (centres unmarked) [SI-128], in the data set on SaOS-2 cells, the “CV (%) after 24 h” value is listed as 63.1 ± 1.1% and the “CV (%) after 48 h” value was found to be 55.4 ± 2.0%.
The compound `CSc1nc(NCCc2ccc(C)cc2)c2cnn(CC(Cl)c3ccccc3)c2n1` (centres unmarked) [SI-60] yielded a melting point of 99 to 100 °C. For the same compound, in the data set on SaOS-2 cells, the “CV (%) after 24 h” value was 101.9 ± 1.9% and the “CV (%) after 48 h” value turned out to be 96.3 ± 1.1%.
Turning to `CSc1nc(Nc2cccc(F)c2)c2cnn(CC(Cl)c3ccccc3)c2n1` (centres unmarked) [SI-90], in the data set on SaOS-2 cells, the “CV (%) after 24 h” value is 94.8 ± 2.7% and the “CV (%) after 48 h” value is 84.3 ± 1.5%.
On to `Clc1cccc(Nc2ncnc3c2cnn3CC(Cl)c2ccccc2)c1` (centres unmarked) [S-17], for which, in the data set on SaOS-2 cells, the “CV (%) after 24 h” value was 104.1 ±0.4% and the “CV (%) after 48 h” value is listed as 101.3 ± 1.5%.
For `CSc1nc(Nc2cccc(Br)c2)c2cnn(CC(Cl)c3ccccc3)c2n1` (centres unmarked) [SI-91], at recombinant human Src, the Ki is 1800 nM. In the data set on SaOS-2 cells, the “CV (%) after 24 h” value amounted to 100.1 ± 1.1% and the “CV (%) after 48 h” value was found to be 84.7 ± 0.3%.
Compound `CSc1nc(NCc2ccc(Cl)cc2)c2cnn(CC(Cl)c3ccccc3)c2n1` (centres unmarked) [SI-87] registered a melting point of 126 to 127 °C. For the same compound, in the data set with SaOS-2 cells, the “CV (%) after 24 h” value worked out at 113.4 ± 1.5% and the “CV (%) after 48 h” value amounted to 54.9 ± 2.4%.
Regarding `Clc1cccc(Nc2nc(SC3CCCCC3)nc3c2cnn3CC(Cl)c2ccccc2)c1` (centres unmarked) [SI-153], at recombinant human Src, the Ki is 700 nM.

What is called melting point is the temperature, or range, at which the solid turns liquid. A word on the Ki: it is a measure of affinity in units of concentration, obtained from inhibition or displacement.
